{"source": "patent US9175030B2", "about": "“Derivatives of avicin D and methods of making and using thereof” (priority 2012, dated 2015)", "key": {"[1]": {"test_system": "769P", "test": "MTT growth inhibition, 769P", "type": "cell-based, human", "conditions": "769P cells, 72 hrs", "method": "(§1) The growth inhibitory effects of avicin D and oxetane derivative were measured using the MTT [3-(4,5-dimethylthiazol-2-yl)-2,5-diphenyl tetrazolium bromide] reduction assay as described in Haridas et al. (2001). Cells were cultured with varying concentrations of avicin D or oxetane in 96-well plates for 72 hrs at 37° C. At the end of 72 hrs, cells were stained with MTT for 2 hrs and then incubated with lysis buffer (20% SDS in 50% N,N-dimethylformamide) for another 6 hrs. Optical density at 570 nm was used as a measure of cell viability.\n(§2) The cell lines 769P, A498, CAKI-1, and CAKI-2 are derived from primary human renal-cell cancers (RCC). A549 is a human lung adenocarcinoma epithelial cell line. B16F10 is a mouse melanoma cell line. BT474, BT 474 M1, BT549, MCF7, […], and ZR751 are breast cancer cell lines. CCRF-CEM, Jurkat, and MOLT4 are leukemia cell lines. HELA is cell line derived from cervical caner. HepG2 is a human hepatocellular liver carcinoma cell line. JeKo-1 is a mantle cell lymphoma (MCL) cell line. LnCAP is a cell line was established from a metastatic lesion of human prostatic adenocarcinoma. MM.1 and RPMI-8226 are human multiple myeloma cell lines. OVCAR3 and SKOV3 are ovarian cancer cell lines. Panc-1 is a pancreatic cancer cell line. PC3 is a prostate cancer cell line. Raji is a Burkitt's lymphoma cell line. RL is a non-Hodgkin's lymphoma cell line. […]"}, "[2]": {"test_system": "BT474", "test": "MTT growth inhibition, BT474", "type": "cell-based", "conditions": "BT474 cells, 72 hrs", "method": "as §1, §2"}, "[3]": {"test_system": "BT474 M1", "test": "MTT growth inhibition, BT474 M1", "type": "cell-based", "conditions": "BT474 M1 cells, 72 hrs", "method": "as §1, §2"}, "[4]": {"test_system": "BT549", "test": "MTT growth inhibition, BT549", "type": "cell-based", "conditions": "BT549 cells, 72 hrs", "method": "as §1, §2"}, "[5]": {"test_system": "CCRF-CEM", "test": "MTT growth inhibition, CCRF-CEM", "type": "cell-based", "conditions": "CCRF-CEM cells, 72 hrs", "method": "as §1, §2"}, "[6]": {"test_system": "HepG2", "test": "MTT growth inhibition, HepG2", "type": "cell-based, human", "conditions": "HepG2 cells, 72 hrs", "method": "as §1, §2"}, "[7]": {"test_system": "LnCAP", "test": "MTT growth inhibition, LnCAP", "type": "cell-based, human", "conditions": "LnCAP cells, 72 hrs", "method": "as §1, §2"}, "[8]": {"test_system": "MCF7", "test": "MTT growth inhibition, MCF7", "type": "cell-based", "conditions": "MCF7 cells, 72 hrs", "method": "as §1, §2"}, "[9]": {"test_system": "MINO", "test": "MTT growth inhibition, MINO", "type": "cell-based", "conditions": "MINO cells, 72 hrs", "method": "as §1, §2"}, "[10]": {"test_system": "MOLT4", "test": "MTT growth inhibition, MOLT4", "type": "cell-based", "conditions": "MOLT4 cells, 72 hrs", "method": "as §1, §2"}, "[11]": {"test_system": "Panc-1", "test": "MTT growth inhibition, Panc-1", "type": "cell-based", "conditions": "Panc-1 cells, 72 hrs", "method": "as §1, §2"}, "[12]": {"test_system": "PC3", "test": "MTT growth inhibition, PC3", "type": "cell-based", "conditions": "PC3 cells, 72 hrs", "method": "as §1, §2"}, "[13]": {"test_system": "Raji", "test": "MTT growth inhibition, Raji", "type": "cell-based", "conditions": "Raji cells, 72 hrs", "method": "as §1, §2"}, "[14]": {"test_system": "RL", "test": "MTT growth inhibition, RL", "type": "cell-based", "conditions": "RL cells, 72 hrs", "method": "as §1, §2"}, "[15]": {"test_system": "RPMI 8226", "test": "MTT growth inhibition, RPMI 8226", "type": "cell-based, human", "conditions": "RPMI 8226 cells, 72 hrs", "method": "as §1, §2"}, "[16]": {"test_system": "SKOV3", "test": "MTT growth inhibition, SKOV3", "type": "cell-based", "conditions": "SKOV3 cells, 72 hrs", "method": "as §1, §2"}, "[17]": {"test_system": "U266", "test": "MTT growth inhibition, U266", "type": "cell-based", "conditions": "U266 cells, 72 hrs", "method": "as §1, §2"}, "[18]": {"test_system": "3T3 L1", "test": "MTT growth inhibition, 3T3 L1", "type": "cell-based", "conditions": "3T3 L1 fibroblast cells, 72 hrs", "method": "as §1, §2"}, "[19]": {"test_system": "HEK293", "test": "MTT growth inhibition, HEK293", "type": "cell-based, human", "conditions": "HEK293 cells, 72 hrs", "method": "as §1, §2"}, "[20]": {"test_system": "HS27", "test": "MTT growth inhibition, HS27", "type": "cell-based", "conditions": "HS27 human foreskin fibroblast cells, 72 hrs", "method": "as §1, §2"}, "[21]": {"test_system": "Nrf2", "test": "Nrf2 activation, ARE-driven luciferase in Hep G2 cells", "type": "cell-based, human", "conditions": "Hep G2 cells transfected with hARE-luc, luciferase activity", "method": "Activation of Nrf2 was assessed by measuring the antioxidant response element (ARE)-mediated gene expression as described previously by Haridas et al., 2004, which is incorporated herein by reference. Briefly, ARE is a cis-acting regulatory sequence identified in the promoter region of several genes encoding phase 2 detoxification enzymes, that binds to Nrf2. Hep G2 (human hepatocarcinoma) cells were transfected with a human ARE-driven luciferase (luc) containing plasmid, hARE-luc. Following exposure to avicin D/compound 8, the luciferase activity induced in these cells was measured using a dual-luciferase assay kit (Promega) according to the manufacturer's protocol."}, "[22]": {"test_system": "Jurkat (human T-cell leukemia) cells", "test": "Reduction in cell viability, Jurkat cells (Table 6)", "type": "cell-based", "conditions": "50% reduction in cell viability", "description": "The IC50 values indicate the concentrations of avicin D/compound 8 required to induce a 50% reduction in call viability. These studies were done in Jurkat (human T-cell leukemia) cells and have been described previously in Haridas et al., 2001, which is incorporated herein by reference."}, "[23]": {"test_system": "NF-κB", "test": "Inhibition of NF-κB activation (FIG. 2A)", "type": "cell-based", "conditions": "compared with dexamethasone"}, "[24]": {"test_system": "IL-6", "test": "IL-6 expression, constitutive and TNF-induced (FIG. 2B)", "type": "cell-based"}, "[25]": {"molecular_target": "glucocorticoid receptor (GR) (Homo sapiens, UniProt P04150)", "sequence (P04150 whole entry)": "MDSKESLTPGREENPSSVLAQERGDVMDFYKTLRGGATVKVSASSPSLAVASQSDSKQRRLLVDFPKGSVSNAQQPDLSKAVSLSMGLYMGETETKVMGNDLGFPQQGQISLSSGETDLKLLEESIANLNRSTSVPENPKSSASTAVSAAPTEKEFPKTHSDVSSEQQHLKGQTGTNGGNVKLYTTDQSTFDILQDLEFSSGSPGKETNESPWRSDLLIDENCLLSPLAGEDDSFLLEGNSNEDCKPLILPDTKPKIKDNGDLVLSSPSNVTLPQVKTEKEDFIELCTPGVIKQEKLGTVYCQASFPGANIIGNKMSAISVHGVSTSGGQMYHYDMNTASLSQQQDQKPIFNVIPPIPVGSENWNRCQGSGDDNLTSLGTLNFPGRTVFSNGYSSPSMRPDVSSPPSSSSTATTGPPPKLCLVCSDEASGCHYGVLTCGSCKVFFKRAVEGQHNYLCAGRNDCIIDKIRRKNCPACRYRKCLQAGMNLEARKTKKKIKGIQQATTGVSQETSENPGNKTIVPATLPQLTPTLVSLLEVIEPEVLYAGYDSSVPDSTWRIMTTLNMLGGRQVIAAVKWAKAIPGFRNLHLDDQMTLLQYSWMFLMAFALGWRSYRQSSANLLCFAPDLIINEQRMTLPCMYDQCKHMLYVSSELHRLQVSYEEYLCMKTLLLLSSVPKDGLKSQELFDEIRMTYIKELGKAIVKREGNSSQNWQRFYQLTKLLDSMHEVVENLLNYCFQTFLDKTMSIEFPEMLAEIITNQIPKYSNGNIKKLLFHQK", "test": "GR Ser-211 phosphorylation (FIG. 4)", "type": "cell-based", "conditions": "up to 16 hours"}, "[26]": {"test_system": "chemotaxis", "test": "Inhibition of chemotaxis", "type": "cell-based", "conditions": "preliminary data"}, "[27]": {"test_system": "3T3-L1 cells", "conditions": "cited from earlier work"}}}
{"smiles": "C=C[C@](C)(O)CC/C=C(\\CO)C(=O)O[C@H]1[C@H](O)[C@@H](O)[C@H](O[C@@](C)(C=C)CC/C=C(\\CO)C(=O)O[C@H]2C[C@]3(C(=O)O[C@@H]4O[C@H](CO)[C@@H](O)[C@H](O)[C@H]4O[C@@H]4O[C@@H](C)[C@H](O[C@@H]5O[C@@H](CO)[C@H](O)[C@H]5O)[C@@H](O[C@@H]5O[C@H](CO)[C@@H](O)[C@H](O)[C@H]5O)[C@H]4O)[C@H](O)C[C@]4(C)C(=CC[C@@H]5[C@@]6(C)CC[C@H](O[C@@H]7O[C@H](CO[C@@H]8O[C@H](C)[C@H](O)[C@H](O)[C@H]8O[C@@H]8OC[C@@H](O)[C@H](O)[C@H]8O)[C@@H](O)[C@H](O)[C@H]7NC(C)=O)C(C)(C)[C@@H]6CC[C@]54C)[C@@H]3CC2(C)C)O[C@@H]1C", "note": "[Avicin D]", "values": [{"measurement": "IC50", "setting": "[1]", "value": 360, "unit": "nM"}, {"measurement": "IC50", "setting": "[2]", "value": 2800, "unit": "nM"}, {"measurement": "IC50", "setting": "[3]", "value": 1100, "unit": "nM"}, {"measurement": "IC50", "setting": "[4]", "value": 4800, "unit": "nM"}, {"measurement": "IC50", "setting": "[5]", "value": 5500, "unit": "nM"}, {"measurement": "IC50", "setting": "[6]", "value": 440, "unit": "nM"}, {"measurement": "IC50", "setting": "[7]", "value": 470, "unit": "nM"}, {"measurement": "IC50", "setting": "[8]", "value": 15200, "unit": "nM"}, {"measurement": "IC50", "setting": "[9]", "value": 420, "unit": "nM"}, {"measurement": "IC50", "setting": "[10]", "value": 320, "unit": "nM"}, {"measurement": "IC50", "setting": "[11]", "value": 520, "unit": "nM"}, {"measurement": "IC50", "setting": "[12]", "value": 440, "unit": "nM"}, {"measurement": "IC50", "setting": "[13]", "value": 1270, "unit": "nM"}, {"measurement": "IC50", "setting": "[14]", "value": 310, "unit": "nM"}, {"measurement": "IC50", "setting": "[15]", "value": 300, "unit": "nM"}, {"measurement": "IC50", "setting": "[16]", "value": 1000, "unit": "nM"}, {"measurement": "IC50", "setting": "[17]", "value": 300, "unit": "nM"}, {"measurement": "IC50", "setting": "[18]", "value": 3800, "unit": "nM"}, {"measurement": "IC50", "setting": "[19]", "value": 6500, "unit": "nM"}, {"measurement": "IC50", "setting": "[20]", "value": 6100, "unit": "nM"}, {"measurement": "Fold Nrf2 activation", "setting": "[21]", "value": 2.10}, {"measurement": "IC50", "setting": "[22]", "value": 180, "unit": "nM"}, {"measurement": "activation of NF-κB", "setting": "[23]", "value": "inhibits activation of NF-κB"}, {"measurement": "expression of IL-6", "setting": "[24]", "value": "suppresses the expression of both constituitive and TNF-induced IL-6"}, {"measurement": "phosphorylation of Ser-211", "setting": "[25]", "value": "does not enhance phosphorylation of Ser-211 even after 16 hours"}, {"measurement": "inhibition of chemotaxis", "setting": "[26]", "value": "effective at inhibiting chemotaxis at picomolar and nanomolar concentrations"}, {"measurement": "adipogenesis", "setting": "[27]", "value": "inhibit adipogenesis"}, {"measurement": "intracellular triglyceride level", "setting": "[27]", "value": "reduce intracellular triglyceride level in a dose-dependent manner"}]}
